From patent publication EP2812315B1, “PYRROLIC DERIVATIVES, PROCESSES FOR PREPARING THE SAME AND THEIR USES AS A DRUG” (Universite Joseph Fourier, priority 2012, dated 2013)
Values after ≈ are worked out from the molar mass of the structure shown.

How the values were obtained:
Format in all cases: cell-based
[1] = test system: KB (human mouth carcinoma); test: In vitro cytotoxicity; conditions: triplicate; for inhibition at 10 µM: 10^-5 M in DMSO, read-out: % of cellular growth inhibition; for inhibition at 1 µM: 10^-6 M in DMSO, read-out: % of cellular growth inhibition (converted)
Method: (§1) In vitro cytotoxicity was assayed on three cell lines - KB (human mouth carcinoma), MCR5 (human lung fibroblast) and HCT116 (human colon tumor). Results are presented in table III as % of cellular growth inhibition in presence of 10^-5 M and 10^-6 M of the tested bis-pyrrolic derivatives in DMSO (triplicate).

MRC5 = test: In vitro cytotoxicity; conditions: MRC5 (human lung fibroblast), triplicate; for inhibition at 10 µM: 10^-5 M in DMSO, read-out: % of cellular growth inhibition; for inhibition at 1 µM: 10^-6 M in DMSO, read-out: % of cellular growth inhibition (converted)
Method: as §1

[2] = test system: HCT116 (human colon tumor); test: In vitro cytotoxicity; conditions: triplicate; for inhibition at 10 µM: HCT-116, 10^-5 M in DMSO, read-out: % of cellular growth inhibition; for inhibition at 1 µM: HCT-116, 10^-6 M in DMSO, read-out: % of cellular growth inhibition (converted)
Method: as §1

[3] = test system: Staphylococcus aureus MRSA 252 CNR HT 2006 0436; test: Determination of the minimum bactericidal concentration (MBC), macro-method; conditions: 18 hours incubation, initial bacterial load 9500000
Method: (§2) The MBC against two different strains of Staphylococcus aureus, one susceptible to methicillin (MSSA 476 CNR HT 2006 0437) and one resistant to methicillin (MRSA 252 CNR HT 2006 0436) obtained from Centre National de Reference des Staphylocoques (Lyon, France) were determined using a macro-method. Sterile tubes were filled with a primary bacterial inoculum prepared in Mueller Hinton broth as above (10^6 CFU/ml of final inoculum) and pyrrolic compounds were added at twofold serial concentrations (0.5-128 mg/L of final concentrations for 3h and 3i and 0.0625-128mg/L of final concentration for 3n). After 18 hours incubation of cultures, ten-fold serial dilutions of the cultures with no visible bacterial growth and of the first tube showing visible bacterial growth were prepared. Then 100µl of each dilution were inoculated to Mueller Hinton agar media for 24-48 hours. CFU counts were then determined and the MBC corresponded to the minimal pyrrolic compound concentration for which 99.9% of more bacterial cells were killed after 18 hours of incubation.
(§3) However, this reduction was only 1-2 log CFU/ml, and thus MBC could not be determined (tables VI and VII). Table VI: MBC against Staphylococcus aureus MRSA 252 CNR HT 2006 0436

[4] = test system: Staphylococcus aureus MSSA 476 CNR HT 2006 0437; test: as above; conditions: 18 hours incubation, initial bacterial load 7,70E+05
Method: as §2, §3

[5] = test system: Staphylococcus aureus (MSSA476); test: Other MIC determination, microdilution method (CLSI M07-A9) with modifications; conditions: 10^6 CFU/ml, 18h at 37 °C
Method: (§4) The microdilution method recommended by the Clinical and Laboratory Standard Institute [M07-A9, Vol.32, N°2] was used with the following modifications.
(§5) Bacterial inocula were prepared in Mueller Hinton broth (MH2, BioMérieux, Marcy L'Etoile, France). They were dispensed in 96 well microtiter plates (10^6 CFU/ml of final inoculum, 192 µL per well).
(§6) To avoid cross-contaminations in microtiter plates, one row was left blank between each strain tested. Microplates were incubated for 18h at 37 °C in ambient air. Then MICs were read visually and, in case of visual reading difficulties, confirmed using a spectrophotometer at a wavelength of 630 nm (BioTek® EL808 Absorbance Microplate Reader). MICs corresponded to the minimum pyrrolic compound concentrations that allowed complete visual growth inhibition of bacteria. Drug-free cultures served as growth controls.
(§7) We used four Staphylococcus aureus strains. Two reference strains were provided by the French reference center for Staphylococcus spp. (Lyon, France), including one methicillin-susceptible (MSSA 476) and one methicillin-resistant (MRSA 252) S. aureus strains. The two remaining S. aureus strains were purchased from the CRBIP (Centre de Ressources Biologiques de l'Institut Pasteur): a vancomycin-intermediate strain (ATCC 106414) and a S. aureus strain (SA-1199B) resistant to fluoroquinolones due to overexpression of the NorA multidrug efflux pump. Coagulase-negative Staphylococcus strains included three reference strains purchased from CRBIP: a methicillin-susceptible S. epidermidis strain (ATCC 12228), a methicillin-resistant S. epidermidis strain (ATCC 49461), and a methicillin-susceptible S. sciuri strain (ATCC 29061). We also used 37 clinical strains belonging to the following coagulase-negative Staphylococcus species: S. arlettae (two strains), S. capitis (nine strains), S. epidermidis (one strain), S. haemolyticus (six strains), S. hominis (eight strains), S. lugdunensis (one strain), S. massiliensis (one strain), S. pettenkoferi (two strains), S. saprophyticus (two strains), S. simulans (one strain), and S. warneri (four strains) . Identification of the clinical strains was first obtained using VITEK® 2 System (Biomérieux) and confirmed by amplification and sequencing of the tuf gene (Reference: Bergeron, M., O. Dauwalder, M. Gouy, A.-M. Freydiere, M. Bes, H. Meugnier, Y. Benito, J. Etienne, G. Lina, F. Vandenesch, and S. Boisset. Species identification of staphylococci by amplification and sequencing of the tuf gene compared to the gap gene and by matrix-assisted laser desorption ionization time-of-flight mass spectrometry, Eur. J. Clin. Microbial. Infect. Dis. 2011, 30, 343-354).
(§8) The activity of pyrrolic compounds 3c, 3e-3j and 3n was first tested against 12 Staphylococcus sp. strains, including 7 reference strains and five clinical strains. The MICs of these compounds against Staphylococcus aureus ATCC 106414 (VISA) and Staphylococcus epidermidis ATCC 12228 are in accordance with those described in Tables I and II.

[6] = test system: Staphylococcus hominis(CHUG-Shom1); test: as above; conditions: 10^6 CFU/ml, 18h at 37 °C
Method: as §4, §5, §6, §7, §8

[7] = test system: Staphylococcus capitis (CHUG-Scapi1); test: as above; conditions: 10^6 CFU/ml, 18h at 37 °C
Method: as §4, §5, §6, §7, §8

[8] = test system: Staphylococcus aureus (ATCC 106414, VISA); test: as above; conditions: 10^6 CFU/ml, 18h at 37 °C
Method: as §4, §5, §6, §7, §8

[9] = test system: Staphylococcus sciuri (ATCC 29061); test: as above; conditions: Mammaliicoccus sciuri, ATCC29061, 10^6 CFU/ml, 18h at 37 °C
Method: as §4, §5, §6, §7, §8

| Compound | inhibition at 10 µM [1] | inhibition at 1 µM [1] | inhibition at 10 µM (MRC5) | inhibition at 1 µM (MRC5) | inhibition at 10 µM [2] | inhibition at 1 µM [2] | CFU counts (bacterial load) ([3]; concentration 0,5 mg/L) | CFU counts (bacterial load) ([3]; concentration 1 mg/L) | CFU counts (bacterial load) ([3]; concentration 2 mg/L) | CFU counts (bacterial load) ([3]; concentration 4 mg/L) | CFU counts (bacterial load) ([3]; concentration 8 mg/L) | CFU counts (bacterial load) ([3]; concentration 16 mg/L) | CFU counts (bacterial load) ([4]; concentration 0,5 mg/L) | CFU counts (bacterial load) ([4]; concentration 1 mg/L) | CFU counts (bacterial load) ([4]; concentration 2 mg/L) | CFU counts (bacterial load) ([4]; concentration 4 mg/L) | CFU counts (bacterial load) ([4]; concentration 16 mg/L) | CFU counts (bacterial load) ([4]; concentration 32 mg/L) | CFU counts (bacterial load) ([4]; concentration 64 mg/L) | CFU counts (bacterial load) ([4]; concentration 128 mg/L) | further results |
| --- | --- | --- | --- | --- | --- | --- | --- | --- | --- | --- | --- | --- | --- | --- | --- | --- | --- | --- | --- | --- | --- |
| CC(=O)c1c(C)[nH]c(C(c2[nH]c(C)c(C(C)=O)c2C)c2csc3ccccc23)c1C [3i] | 95 ± 1% | 0% | 84 ± 1% | 0% | 50 ± 1% | 10% | 4,70E+07 CFU/ml | 5,20E+05 CFU/ml | 2,40E+05 CFU/ml | 5,60E+05 CFU/ml | 2,80E+05 CFU/ml | 2,80E+05 CFU/ml | 1,46E+08 CFU/ml | 6,00E+07 CFU/ml | 3,55E+06 CFU/ml | 2,72E+05 CFU/ml | 3,51E+05 CFU/ml | 3,41E+05 CFU/ml | 3,21 E+05 CFU/ml | 1,47E+06 CFU/ml | CFU counts (bacterial load) ([3]; concentration 32 mg/L): 5,00E+05 CFU/ml; CFU counts (bacterial load) ([3]; concentration 64 mg/L): 4,80E+05 CFU/ml; CFU counts (bacterial load) ([3]; concentration 128 mg/L): 1,00E+06 CFU/ml; CFU counts (bacterial load) ([4]; concentration 8 mg/L): 3,01E+05 CFU/ml; MIC [5]: 0.5 µg/mL (≈ 1.19 µM); MIC [6]: > 32 µg/mL; MIC [7]: 1 µg/mL (≈ 2.39 µM); MIC [8]: 0.5 µg/mL (≈ 1.19 µM); MIC [9]: > 32 µg/mL |
| CC(=O)c1c(C)[nH]c(C(c2[nH]c(C)c(C(C)=O)c2C)c2csc3ccc(Br)cc23)c1C [3n] | 100 ± 1% | 81% | 96 ± 1% | 67% | 83 ± 1% | 47% | 2,90E+05 CFU/ml | 3,00E+05 CFU/ml | 4,20E+05 CFU/ml | 4,20E+05 CFU/ml | 3,40E+05 CFU/ml | 3,80E+05 CFU/ml | 2,78E+05 CFU/ml | 1,76E+05 CFU/ml | 2,70E+05 CFU/ml | 2,71E+05 CFU/ml | 4,41E+05 CFU/ml | 4,47E+05 CFU/ml | 4,50E+05 CFU/ml | 3,50E+05 CFU/ml | CFU counts (bacterial load) ([3]; concentration 0,25 mg/L): 2,80E+05 CFU/ml; CFU counts (bacterial load) ([3]; concentration 0,125 mg/L): 1,00E+06 CFU/ml; CFU counts (bacterial load) ([3]; concentration 0,0625 mg/L): 2,90E+07 CFU/ml; CFU counts (bacterial load) ([4]; concentration 0,25 mg/L): 2,10E+06 CFU/ml; CFU counts (bacterial load) ([4]; concentration 0,125 mg/L): 8,00E+07 CFU/ml; CFU counts (bacterial load) ([4]; concentration 0,0625 mg/L): 2,15E+08 CFU/ml; MIC [5]: 0.125 µg/mL (≈ 0.251 µM); MIC [6]: > 32 µg/mL; MIC [7]: 0.125 µg/mL (≈ 0.251 µM); MIC [8]: 0.125 µg/mL (≈ 0.251 µM); MIC [9]: > 32 µg/mL |
